According to US20240247236A1, “METHOD FOR PRODUCING PLURIPOTENT STEM CELLS” (KANEKA CORPORATION, priority 2021, published 2024):

System: human iPS cell line 201B7
Test: Quantitative real-time PCR analysis of germ layer marker genes in suspension culture of human iPS cell line 201B7
Assay type: cell-based
Details: WNT inhibitor = IWR-1-endo 20 μM, PKCβ inhibitor = GF109203X 3 μM
[1] = day 10 of suspension culture, compared with adherent culture (Reference Example 1)

Method: Human iPS cell line 201B7 after adherent culture in the same manner as in Reference Example 1 was treated with Accutase for 5 minutes to be detached from the culture surface, and the cells were dispersed into a single state by pipetting. The cells were suspended in StemFit (registered trademark) AK02N medium containing Y-27632 at a final concentration of 10 μM, and some of the cells were stained with trypan blue, followed by measurement of the viable cell count. A cell suspension was prepared using StemFit (registered trademark) AK02N medium containing Y-27632 at a final concentration of 10 μM such that the cell suspension included 2×10^5 cells per 1 mL. The cell suspension in an amount of 1 mL was seeded per well in a 12-well plate for suspension culture (Sumitomo Bakelite Co., Ltd.). The plate seeded with cells was rotated on a rotary shaker at a speed of 98 rpm along a horizontal plane in a circle with a rotation width (diameter) of 25 mm, during which the suspension culture was performed at 37° C. in a 5% CO2 environment.
The day when the cells were seeded was defined as day 0 of culture, passage was performed on day 5 of culture, and suspension culture was performed until day 10 of culture. Medium exchange was carried out every day. As for the method of medium exchange, the entire amount of the medium containing cell masses was collected into a centrifuge tube, and the tube was allowed to stand for about 5 minutes, thereby settling the cell masses. Then, the culture supernatant was removed, and the residue was gently resuspended in StemFit (registered trademark) AK02N medium, and returned to the original well.
Upon medium exchange, Y-27632 was added to the medium at a final concentration of 5 μM on days 1 and 6 of culture, and Y-27632 was added to the medium at a final concentration of 2 μM on days 2 and 7 of culture. On day 5 of culture, the cell masses and culture supernatant were collected from the wells into a centrifuge tube and allowed to stand for about 5 minutes, thereby settling the cell masses. Then, the culture supernatant was removed.
After adding 1 mL of Accutase to the cell masses, the cell masses were treated at 37° C. for 10 minutes and then dispersed into a single-cell state by pipetting. The cells were suspended in StemFit (registered trademark) AK02N medium containing Y-27632 at a final concentration of 10 μM, and some of the cells were stained with trypan blue, followed by measurement of the viable cell count. A cell suspension was prepared using StemFit (registered trademark) AK02N medium containing Y-27632 at a final concentration of 10 μM such that the cell suspension included 2×10^5 cells per 1 mL. Then, cell seeding was performed in the same manner as in the case of day 0 to continue the suspension culture.
Suspension culture was performed in the same manner as in Reference Example 2, except that IWR-1-endo was added as a WNT inhibitor at a final concentration of 20 μM to the seeding medium and the medium exchanged for new medium for suspension culture.

## O=C(Nc1cccc2cccnc12)c1ccc(N2C(=O)[C@@H]3[C@H](C2=O)[C@@H]2C=C[C@H]3C2)cc1 [IWR-1-endo, 4-(1,3,3a,4,7,7a-hexahydro-1,3-dioxo-4,7-methano-2H-isoindole-2-yl)-N-8-quinolinyl-benzamide]
[1]
  expression level of PAX6 (ectodermal marker gene): greater than that in Reference Example 1
  expression level of SOX17 (endodermal marker gene): suppressed to the expression levels acceptable for the pluripotent stem cells as with Reference Example 1
  expression level of TBXT (mesodermal marker gene): suppressed to the expression levels acceptable for the pluripotent stem cells as with Reference Example 1
Suspension culture
  spontaneous differentiation into ectoderm: weak suppressive effect
  spontaneous differentiation into mesoderm and endoderm: can effectively suppress
